The test system of assay [1] is Cryptococcus neoformans. Kind of assay: Antifungal activity against Cryptococcus neoformans H99 expressing PCTR4-2/FAS1 assessed as logarithmic reduction in viable cells at 8 ug/ml in presence of bathocuproinedisulfonic acid. It is filed as functional.
Assay [2] relates to Cryptococcus neoformans. Kind of assay: Antifungal activity against Cryptococcus neoformans H99 expressing PCTR4-2/FAS2 assessed as logarithmic reduction in viable cells at 8 ug/ml in presence of bathocuproinedisulfonic acid. It is filed as functional.
In assay [3] the test system is Cryptococcus neoformans. Description: Antifungal activity against Cryptococcus neoformans H99 expressing PCTR4-2/FAS1 assessed as reduction in viable cells at 8 ug/ml after 72 hrs in presence of CuSO4 relative to CuSO4 alone. It is filed as functional.
Assay [4] deals with Cryptococcus neoformans. Description: Fungicidal activity against Cryptococcus neoformans H99 expressing PCTR4-2/FAS2 after 72 hrs in presence of CuSO4. It is filed as functional, organism-based.

Here are results for one molecule from ChEMBL document CHEMBL1152826, “Fatty acid synthesis is essential for survival of Cryptococcus neoformans and a potential fungicidal target” (2007).

The source made the active and inactive calls. The calls are words filed in the database; no cut-off is given here.

As to `OC(Cn1cncn1)(Cn1cncn1)c1ccc(F)cc1F` [FLUCONAZOLE], the Activity in assay [1] and in assay [2] was 0.5 each time. In addition, the “fold change (FC)” value in assay [3] is listed as 100. In addition, the result in assay [4] was Active.
